The results in this text go back to PMC9687900, “Design, Synthesis, Kinetic Analysis and Pharmacophore-Directed Discovery of 3-Ethylaniline Hybrid Imino-Thiazolidinone as Potential Inhibitor of Carbonic Anhydrase II: An Emerging Biological Target for Treatment of Cancer” (Biomolecules, 2022).

The target in data set [1] is carbonic anhydrase II (CA-II) (Bos taurus, UniProt P00921). Briefly: Carbonic anhydrase assay (p-nitrophenyl acetate hydrolysis). The format is biochemical, bovine. Particulars: for IC50: bovine enzyme, mean ± SEM. As to the method: As mentioned previously, the inhibition of carbonic anhydrase was investigated with adjustments. The method relies on the fact that carbonic anhydrase hydrolyzes p-nitrophenyl acetate into yellow-colored p-nitrophenol, which is then quantified spectrophotometrically. Each well contained 120 µL of a 50 mM Tris-sulfate buffer (pH 7.6, containing 0.1 mM ZnCl2), 20 µL of an inhibitor, and 20 µL of bovine enzyme (50 U). The materials were properly mixed and incubated for 10 min at 25 degrees Celsius. The substrate p-nitrophenyl acetate was synthesized (6 mM stock using <5% acetonitrile in buffer and used fresh each time) and 40 µL was added per well to achieve a concentration of […] per well. The total volume of the reaction was 200 µL. […] Each concentration was assessed in three distinct tests. The IC50 values were calculated with GraphPad Prism 5.0 [38] and nonlinear regression (GraphPad, San Diego, CA USA). (2) Inhibition (%)=B−S/B×100
Sequence of carbonic anhydrase II (CA-II) (P00921 whole entry): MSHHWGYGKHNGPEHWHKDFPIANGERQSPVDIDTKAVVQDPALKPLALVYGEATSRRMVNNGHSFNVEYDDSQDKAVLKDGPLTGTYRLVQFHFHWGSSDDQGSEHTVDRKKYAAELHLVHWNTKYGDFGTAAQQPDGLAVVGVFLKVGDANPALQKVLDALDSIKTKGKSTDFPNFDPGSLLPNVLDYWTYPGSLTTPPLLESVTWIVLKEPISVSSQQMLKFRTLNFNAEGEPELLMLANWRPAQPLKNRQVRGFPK
Here, B and S represent the absorbances of the blank and sample, respectively.

Data set [2] has as its target carbonic anhydrase (Bos taurus, UniProt P00921). In words: Kinetic analysis of carbonic anhydrase inhibition (Lineweaver–Burk plots). It counts as biochemical, bovine. From the text:
Based on the IC50 values, the most efficacious carbonic anhydrase inhibitor, compound 6e, was designated for kinetic investigation. Lineweaver-–Burk plots and a second plot are depicted in (Figure 3A,B). At various concentrations of the inhibitor and substrate, Lineweaver–Burk plots (plot of 1/V vs. 1/[S]) were generated to determine the kind of inhibition. […] The EI dissociation constant was shown by the second plot (Figure 3B) of the slope vs. the concentration of 6e.
To investigate the kinetic properties of compound 6e, identical experiments to those described in previous study were performed. The compound 6e was selected based on its IC50 value at various concentrations (0.00, 0.78, 1.55, and 3.11 µM, respectively), whereas the substrate concentrations (p-nitrophenyl acetate) were varied from (2, 1, 0.5, 0.25 and 0.125 mM). Other experimental settings mirrored those mentioned in the section under “Carbonic anhydrase assay”. The maximum starting velocity was estimated using the first linear section of absorbance up to 10 min at 1 min intervals. To evaluate the kind of enzyme inhibition, Lineweaver–Burk plots depicting the inverse of velocities (1/V) vs. the inverse of substrate concentration (1/[S] mM^−1) were utilized. […] Version 11 of Microsoft Excel was used to create graphs.

Sequence of carbonic anhydrase (P00921 whole entry): as above

In turn, `CCOC(=O)C=C1SC(=NC(=O)c2ccccc2C)N(c2cccc(CC)c2)C1=O` [Compound 6a] yielded a melting point of 235 to 237 °C. This compound also yielded an IC50 in data set [1] of 1.66 ± 0.095 µM.

In turn, `CCOC(=O)/C=C1\S/C(=N\C(=O)c2ccc(Cl)cc2Cl)N(c2cccc(CC)c2)C1=O` [Compound 6b] showed a melting point of 235 to 237 °C. Half-maximal inhibition in data set [1] (IC50) required 67.5 ± 2.71 µM.

`CCOC(=O)/C=C1\S/C(=N\C(=O)c2ccccc2Br)N(c2cccc(CC)c2)C1=O` [Compound 6c]: the melting point lay in the range of 235 to 237 °C. The same compound yielded an IC50 in data set [1] of 60.1 ± 1.92 µM.

`CCOC(=O)/C=C1\S/C(=N\C(=O)c2ccc(C)cc2)N(c2cccc(CC)c2)C1=O` [Compound 6d] gave a melting point of 235 to 237 °C. In data set [1], this compound displayed an IC50 of 6.5 ± 0.854 µM.

With `CCOC(=O)/C=C1\S/C(=N\C(=O)c2cccc(C)c2)N(c2cccc(CC)c2)C1=O` [Compound 6e], the melting point lay in the range of 235 to 237 °C. In data set [1], this compound gave an IC50 of 1.54 ± 0.016 µM. In data set [2] (Lineweaver–Burk plots), the kind of inhibition result is given as “competitive mechanism”. For the same compound, the Ki in data set [2] (from slope vs. concentration of 6e, substrate p-nitrophenyl acetate, read-out: Ki (EI dissociation constant)) worked out at 2200 nM.

In turn, `CCOC(=O)/C=C1\S/C(=N\C(=O)c2ccccc2)N(c2cccc(CC)c2)C1=O` [Compound 6f] had a melting point of 235 to 237 °C. Further, in data set [1], half-maximal inhibition (IC50) was put at 9.52 ± 1.08 µM.

`CCOC(=O)/C=C1\S/C(=N\C(=O)c2cccc(Cl)c2)N(c2cccc(CC)c2)C1=O` [Compound 6g] returned a melting point of 235 to 237 °C. This compound gave an IC50 in data set [1] of 1.78 ± 0.095 µM.

In turn, `CCOC(=O)/C=C1\S/C(=N\C(=O)c2ccccc2F)N(c2cccc(CC)c2)C1=O` [Compound 6h] displayed a melting point of 235 to 237 °C. The same compound returned a half-inhibitory concentration (IC50) in data set [1] of 11 ± 1.28 µM.

As to `CCOC(=O)/C=C1\S/C(=N\C(=O)c2ccccc2Cl)N(c2cccc(CC)c2)C1=O` [Compound 6i], the melting point lay in the range of 235 to 237 °C. Besides, it took 5.03 ± 0.659 µM to reach half-maximal inhibition in data set [1] (IC50). In addition, in data set [1] (relative to 6g), the “activity reduced, fold, in comparison to the inhibitory value of derivative 6g” value is listed as “approximately 2.9 fold”.

The compound `CCOC(=O)/C=C1\S/C(=N\C(=O)c2ccc(F)cc2)N(c2cccc(CC)c2)C1=O` [Compound 6j] returned a melting point of 235 to 237 °C. This compound also showed an IC50 in data set [1] of 4.45 ± 0.329 µM.
